Assay results published in article PMC5975062 (Alzheimer's & Dementia : Translational Research & Clinical …, 2015).
Marks after values point to notes of the source that are not given here.

Assay: Safety and tolerability
Type: in vivo, human
[1] = 20 mg bid 11 d solution, fasted, nonelderly
[2] = 50 mg bid 11 d solution, fasted, nonelderly
[3] = 100 mg bid 11 d solution, fed, nonelderly
[4] = 200 mg bid 7 d capsule, fasted, elderly
[5] = 200 mg bid 11 d solution, fasted, nonelderly
[6] = 300 mg bid 7 d capsule, fasted, elderly
[7] = 400 mg bid 11 d capsule, fasted, nonelderly
[8] = 500 mg bid 11 d capsule, fed, nonelderly
[9] = 500 mg bid 11 d tablet, fasted, elderly
[10] = 800 mg bid 11 d tablet, fasted, elderly

CCCOc1ccc([C@H]2CNC(=O)N2c2ccc3[nH]cnc3c2)cc1 [PQ912]
Abdominal pain, number of TEAEs [1]: 1 [1] | Abdominal pain, number of subjects [1]: 1 [1] | Headache, number of TEAEs [1]: 7 | Headache, number of subjects [1]: 3 | Neck pain, number of TEAEs [1]: 1 [1] | Neck pain, number of subjects [1]: 1 [1] | Number of AEs [1]: 16 | Subjects with AEs, number [1]: 7 | Subjects with AEs, percentage of total subjects [1]: 87.5% | Abdominal pain, number of TEAEs [2]: 1 [1] | Abdominal pain, number of subjects [2]: 1 [1] | Chest pain, number of TEAEs [2]: 1 [1] | Chest pain, number of subjects [2]: 1 [1] | Dizziness, number of TEAEs [2]: 1 [1] | Dizziness, number of subjects [2]: 1 [1] | Headache, number of TEAEs [2]: 8 | Headache, number of subjects [2]: 4 | Injection site pain, number of TEAEs [2]: 6 | Injection site pain, number of subjects [2]: 5 | Nausea, number of TEAEs [2]: 1 [1] | Nausea, number of subjects [2]: 1 [1] | Number of AEs [2]: 22 | Subjects with AEs, number [2]: 7 | Subjects with AEs, percentage of total subjects [2]: 87.5% | Back pain, number of TEAEs [3]: 1 [1] | Back pain, number of subjects [3]: 1 [1] | Chest pain, number of TEAEs [3]: 1 [1] | Chest pain, number of subjects [3]: 1 [1] | Headache, number of TEAEs [3]: 4 | Headache, number of subjects [3]: 3 | Injection site pain, number of TEAEs [3]: 3 [3] | Injection site pain, number of subjects [3]: 3 [3] | Number of AEs [3]: 16 | Presyncope, number of TEAEs [3]: 6 [6] | Presyncope, number of subjects [3]: 6 [6] | Subjects with AEs, number [3]: 8 | Subjects with AEs, percentage of total subjects [3]: 100.0% | Number of AEs [4]: 3 | Subjects with AEs, number [4]: 3 | Subjects with AEs, percentage of total subjects [4]: 50.0% | Abdominal pain, number of TEAEs [5]: 1 [1] | Abdominal pain, number of subjects [5]: 1 [1] | Back pain, number of TEAEs [5]: 1 [1] | Back pain, number of subjects [5]: 1 [1] | Chest pain, number of TEAEs [5]: 1 [1] | Chest pain, number of subjects [5]: 1 [1] | Diarrhea, number of TEAEs [5]: 1 [1] | Diarrhea, number of subjects [5]: 1 [1] | Flatulence, number of TEAEs [5]: 1 [1] | Flatulence, number of subjects [5]: 1 [1] | Nausea, number of TEAEs [5]: 1 [1] | Nausea, number of subjects [5]: 1 [1] | Neck pain, number of TEAEs [5]: 1 [1] | Neck pain, number of subjects [5]: 1 [1] | Number of AEs [5]: 11 | Subjects with AEs, number [5]: 6 | Subjects with AEs, percentage of total subjects [5]: 75.0% | Back pain, number of TEAEs [6]: 1 [1] | Back pain, number of subjects [6]: 1 [1] | Headache, number of TEAEs [6]: 4 [4] | Headache, number of subjects [6]: 4 [4] | Injection site pain, number of TEAEs [6]: 4 [4] | Injection site pain, number of subjects [6]: 4 [4] | Number of AEs [6]: 13 | Pain in extremity, number of TEAEs [6]: 2 | Pain in extremity, number of subjects [6]: 1 | Subjects with AEs, number [6]: 6 | Subjects with AEs, percentage of total subjects [6]: 75.0% | Abdominal pain, number of TEAEs [7]: 1 [1] | Abdominal pain, number of subjects [7]: 1 [1] | Back pain, number of TEAEs [7]: 1 [1] | Back pain, number of subjects [7]: 1 [1] | Headache, number of TEAEs [7]: 4 | Headache, number of subjects [7]: 3 | Number of AEs [7]: 9 | Presyncope, number of TEAEs [7]: 1 [1] | Presyncope, number of subjects [7]: 1 [1] | Subjects with AEs, number [7]: 5 | Subjects with AEs, percentage of total subjects [7]: 62.5% | Abdominal pain, number of TEAEs [8]: 1 [1] | Abdominal pain, number of subjects [8]: 1 [1] | Abnormal sensation in eye, number of TEAEs [8]: 2 [2] | Abnormal sensation in eye, number of subjects [8]: 2 [2] | Back pain, number of TEAEs [8]: 5 | Back pain, number of subjects [8]: 4 | Diarrhea, number of TEAEs [8]: 1 [1] | Diarrhea, number of subjects [8]: 1 [1] | Dizziness, number of TEAEs [8]: 2 [2] | Dizziness, number of subjects [8]: 2 [2] | Headache, number of TEAEs [8]: 3 [3] | Headache, number of subjects [8]: 3 [3] | Nausea, number of TEAEs [8]: 1 [1] | Nausea, number of subjects [8]: 1 [1] | Number of AEs [8]: 30 ^‡ | Pain in extremity, number of TEAEs [8]: 2 [2] | Pain in extremity, number of subjects [8]: 2 [2] | Subjects with AEs, number [8]: 8 | Subjects with AEs, percentage of total subjects [8]: 100.0% | Abdominal pain, number of TEAEs [9]: 1 [1] | Abdominal pain, number of subjects [9]: 1 [1] | Back pain, number of TEAEs [9]: 1 [1] | Back pain, number of subjects [9]: 1 [1] | Constipation, number of TEAEs [9]: 2 [2] | Constipation, number of subjects [9]: 2 [2] | Contusion, number of TEAEs [9]: 3 | Contusion, number of subjects [9]: 2 | Diarrhea, number of TEAEs [9]: 1 [1] | Diarrhea, number of subjects [9]: 1 [1] | Dizziness, number of TEAEs [9]: 2 | Dizziness, number of subjects [9]: 1 | Headache, number of TEAEs [9]: 4 | Headache, number of subjects [9]: 2 | Injection site pain, number of TEAEs [9]: 1 [1] | Injection site pain, number of subjects [9]: 1 [1] | Nausea, number of TEAEs [9]: 4 | Nausea, number of subjects [9]: 3 | Number of AEs [9]: 32 | Subjects with AEs, number [9]: 9 | Subjects with AEs, percentage of total subjects [9]: 75.0% | Chest pain, number of TEAEs [10]: 2 | Chest pain, number of subjects [10]: 1 | Constipation, number of TEAEs [10]: 2 [2] | Constipation, number of subjects [10]: 2 [2] | Contusion, number of TEAEs [10]: 1 [1] | Contusion, number of subjects [10]: 1 [1] | Diarrhea, number of TEAEs [10]: 1 [1] | Diarrhea, number of subjects [10]: 1 [1] | Flatulence, number of TEAEs [10]: 3 [3] | Flatulence, number of subjects [10]: 3 [3] | Headache, number of TEAEs [10]: 2 [2] | Headache, number of subjects [10]: 2 [2] | Nausea, number of TEAEs [10]: 2 [2] | Nausea, number of subjects [10]: 2 [2] | Neck pain, number of TEAEs [10]: 1 [1] | Neck pain, number of subjects [10]: 1 [1] | Number of AEs [10]: 34 | Pollakiuria, number of TEAEs [10]: 2 [2] | Pollakiuria, number of subjects [10]: 2 [2] | Subjects with AEs, number [10]: 6 | Subjects with AEs, percentage of total subjects [10]: 100% | subjects withdrawn because of a TEAE (urticaria papular) (500-mg bid, 11 days, capsule, fed, about 3.5 hours after the 18th dose): One subject | drug-related TEAEs, events (after multiple doses, 102 subjects (PQ912 or placebo)): 113 | subjects reporting drug-related TEAEs (after multiple doses, of 102 subjects (PQ912 or placebo)): 47 | drug-related TEAEs, events (after single doses, 104 subjects (PQ912 or placebo)): 25 | subjects reporting drug-related TEAEs (after single doses, of 104 subjects (PQ912 or placebo)): 16 | subjects with clinically significant changes in clinical laboratory parameters (increases in serum potassium, erythrocytes, leukocytes): four subjects | Back pain, number of TEAEs (single 30 mg solution, fasted): 1 [1] | Back pain, number of subjects (single 30 mg solution, fasted): 1 [1] | Number of AEs (single 30 mg solution, fasted): 2 | Subjects with AEs, number (single 30 mg solution, fasted): 2 | Subjects with AEs, percentage of total subjects (single 30 mg solution, fasted): 33.3% | Back pain, number of TEAEs (single 50 mg solution, fasted): 1 [1] | Back pain, number of subjects (single 50 mg solution, fasted): 1 [1] | Fatigue, number of TEAEs (single 50 mg solution, fasted): 1 [1] | Fatigue, number of subjects (single 50 mg solution, fasted): 1 [1] | Headache, number of TEAEs (single 50 mg solution, fasted): 3 | Headache, number of subjects (single 50 mg solution, fasted): 2 | Injection site pain, number of TEAEs (single 50 mg solution, fasted): 1 [1] | Injection site pain, number of subjects (single 50 mg solution, fasted): 1 [1] | Nausea, number of TEAEs (single 50 mg solution, fasted): 1 [1] | Nausea, number of subjects (single 50 mg solution, fasted): 1 [1] | Number of AEs (single 50 mg solution, fasted): 11 | Subjects with AEs, number (single 50 mg solution, fasted): 5 | Subjects with AEs, percentage of total subjects (single 50 mg solution, fasted): 83.3% | Vomiting, number of TEAEs (single 50 mg solution, fasted): 2 | Vomiting, number of subjects (single 50 mg solution, fasted): 1 | Back pain, number of TEAEs (single 100 mg solution, fasted): 3 [3] | Back pain, number of subjects (single 100 mg solution, fasted): 3 [3] | Fatigue, number of TEAEs (single 100 mg solution, fasted): 1 [1] | Fatigue, number of subjects (single 100 mg solution, fasted): 1 [1] | Number of AEs (single 100 mg solution, fasted): 7 | Subjects with AEs, number (single 100 mg solution, fasted): 3 | Subjects with AEs, percentage of total subjects (single 100 mg solution, fasted): 37.5% | Back pain, number of TEAEs (single 400 mg solution, fasted): 2 [2] | Back pain, number of subjects (single 400 mg solution, fasted): 2 [2] | Headache, number of TEAEs (single 400 mg solution, fasted): 1 [1] | Headache, number of subjects (single 400 mg solution, fasted): 1 [1] | Injection site pain, number of TEAEs (single 400 mg solution, fasted): 1 [1] | Injection site pain, number of subjects (single 400 mg solution, fasted): 1 [1] | Number of AEs (single 400 mg solution, fasted): 7 | Presyncope, number of TEAEs (single 400 mg solution, fasted): 1 [1] | Presyncope, number of subjects (single 400 mg solution, fasted): 1 [1] | Subjects with AEs, number (single 400 mg solution, fasted): 4 | Subjects with AEs, percentage of total subjects (single 400 mg solution, fasted): 33.3% | Nausea, number of TEAEs (single 800 mg capsule, fasted): 1 [1] | Nausea, number of subjects (single 800 mg capsule, fasted): 1 [1] | Number of AEs (single 800 mg capsule, fasted): 2 | Subjects with AEs, number (single 800 mg capsule, fasted): 1 | Subjects with AEs, percentage of total subjects (single 800 mg capsule, fasted): 16.7% | Vomiting, number of TEAEs (single 800 mg capsule, fasted): 1 [1] | Vomiting, number of subjects (single 800 mg capsule, fasted): 1 [1] | Headache, number of TEAEs (single 1200 mg capsule, fed): 1 [1] | Headache, number of subjects (single 1200 mg capsule, fed): 1 [1] | Number of AEs (single 1200 mg capsule, fed): 2 | Subjects with AEs, number (single 1200 mg capsule, fed): 1 | Subjects with AEs, percentage of total subjects (single 1200 mg capsule, fed): 16.7% | Nausea, number of TEAEs (single 1800 mg tablet, fasted): 2 [2] | Nausea, number of subjects (single 1800 mg tablet, fasted): 2 [2] | Number of AEs (single 1800 mg tablet, fasted): 2 | Subjects with AEs, number (single 1800 mg tablet, fasted): 2 | Subjects with AEs, percentage of total subjects (single 1800 mg tablet, fasted): 33.3% | overall safety and tolerability (single doses up to 3600 mg, bid doses up to 800 mg): safe and well tolerated | serious adverse events (whole study): no serious adverse events | vital signs, 12-lead ECGs, telemetry, physical examinations (whole study): no clinically significant findings
